Our source for the MIC values is ChEMBL document CHEMBL1687764, “Contribution of BlaA and BlaB beta-lactamases to antibiotic susceptibility of Yersinia enterocolitica biovar 1B” (2010).

≈ marks a conversion by molar mass, not a printed value.

What is called MIC is the least concentration at which growth counts as inhibited.

What all share (format): functional
The subject of experiment [1] is Yersinia enterocolitica. As to the kind of experiment: Antimicrobial activity against Yersinia enterocolitica Biovar 1B 8081 after 20 hrs by Etest. Particulars: Biovar 1B 8081, 20 h.
Experiment [2] deals with Yersinia enterocolitica. As to the kind of experiment: Antimicrobial activity against beta-lactamase A-deficient Yersinia enterocolitica GY5717 after 20 hrs by Etest. Particulars: GY5717, 20 h.
For experiment [3], the system named is Yersinia enterocolitica. As to the kind of experiment: Antimicrobial activity against beta-lactamase B-deficient Yersinia enterocolitica GY5542 after 20 hrs by Etest. Particulars: GY5542, 20 h.
The subject of experiment [4] is Yersinia enterocolitica. As to the kind of experiment: Antimicrobial activity against beta-lactamase A and B-deficient Yersinia enterocolitica GY5718 after 20 hrs by Etest. To be noted: GY5718, 20 h.

As for `CC1(C)S[C@@H]2[C@H](NC(=O)[C@H](N)c3ccc(O)cc3)C(=O)N2[C@H]1C(=O)O` [AMOXICILLIN], the MIC in the experiment on Yersinia enterocolitica [1] came to 24 µg/mL (≈ 65.7 µM); against Yersinia enterocolitica [2], 1.5 µg/mL (≈ 4.1 µM); against Yersinia enterocolitica [3], 24 µg/mL (≈ 65.7 µM); against Yersinia enterocolitica [4], 0.38 µg/mL (≈ 1.04 µM).
As for `CC1(C)S[C@@H]2[C@H](NC(=O)[C@H](N)c3ccccc3)C(=O)N2[C@H]1C(=O)O` [AMPICILLIN], the minimum inhibitory concentration (MIC) in the experiment with Yersinia enterocolitica [1] turned out to be 4 µg/mL (≈ 11.4 µM); against Yersinia enterocolitica [2] it was 0.5 µg/mL (≈ 1.43 µM); against Yersinia enterocolitica [3] it was 4 µg/mL (≈ 11.4 µM); with Yersinia enterocolitica [4] it was 0.19 µg/mL (≈ 0.544 µM).
For `CO/N=C(\C(=O)N[C@@H]1C(=O)N2C(C(=O)O)=C(COC(C)=O)CS[C@H]12)c1csc(N)n1` [CEFOTAXIME], the MIC in the experiment with Yersinia enterocolitica [1] worked out at 0.023 µg/mL (≈ 0.0505 µM); in the experiment on Yersinia enterocolitica [2], 0.023 µg/mL (≈ 0.0505 µM); in the experiment on Yersinia enterocolitica [3], 0.016 µg/mL (≈ 0.0351 µM); against Yersinia enterocolitica [4], 0.012 µg/mL (≈ 0.0263 µM).
On to `CO/N=C(\C(=O)N[C@@H]1C(=O)N2C(C(=O)O)=C(CSc3nc(=O)c(O)nn3C)CS[C@H]12)c1csc(N)n1` [CEFTRIAXONE], for which the minimum inhibitory concentration (MIC) in the experiment with Yersinia enterocolitica [1] turned out to be 0.023 µg/mL (≈ 0.0415 µM); with Yersinia enterocolitica [2], 0.016 µg/mL (≈ 0.0289 µM); against Yersinia enterocolitica [3], 0.016 µg/mL (≈ 0.0289 µM); against Yersinia enterocolitica [4], 0.012 µg/mL (≈ 0.0216 µM).
In the case of `CO/N=C(\C(=O)N[C@@H]1C(=O)N2C(C(=O)O)=C(COC(N)=O)CS[C@H]12)c1ccco1` [CEFUROXIME], the MIC in the experiment with Yersinia enterocolitica [1] is 0.75 µg/mL (≈ 1.77 µM); in the experiment with Yersinia enterocolitica [2] it was 0.5 µg/mL (≈ 1.18 µM); against Yersinia enterocolitica [3], 0.75 µg/mL (≈ 1.77 µM); with Yersinia enterocolitica [4], 0.5 µg/mL (≈ 1.18 µM).
For the compound `C[C@@H](O)[C@H]1C(=O)N2C(C(=O)O)=C(SCCNC=N)C[C@H]12` [IMIPENEM ANHYDROUS], the minimal inhibitory concentration (MIC) with Yersinia enterocolitica [1], in the experiment on Yersinia enterocolitica [2], against Yersinia enterocolitica [3] and against Yersinia enterocolitica [4] was 0.25 µg/mL (≈ 0.835 µM) throughout.
As to `CC1(C)S[C@@H]2[C@H](NC(=O)Cc3ccccc3)C(=O)N2[C@H]1C(=O)O` [PENICILLIN G], the MIC is 24 µg/mL (≈ 71.8 µM) with Yersinia enterocolitica [1], 4 µg/mL (≈ 12 µM) against Yersinia enterocolitica [2], 24 µg/mL (≈ 71.8 µM) in the experiment on Yersinia enterocolitica [3] and 1 µg/mL (≈ 2.99 µM) in the experiment with Yersinia enterocolitica [4].
Turning to `CCN1CCN(C(=O)N[C@@H](C(=O)N[C@@H]2C(=O)N3[C@@H]2SC(C)(C)[C@@H]3C(=O)O)c2ccccc2)C(=O)C1=O` [PIPERACILLIN], the minimal inhibitory concentration (MIC) is 0.75 µg/mL (≈ 1.45 µM) against Yersinia enterocolitica [1], 0.19 µg/mL (≈ 0.367 µM) with Yersinia enterocolitica [2], 0.75 µg/mL (≈ 1.45 µM) against Yersinia enterocolitica [3] and 0.094 µg/mL (≈ 0.182 µM) with Yersinia enterocolitica [4].
